{"source": "patent US20090111781A1", "about": "“Use of Cymipristone Type Compounds in Aids Treatment” (SHANGHAI THREE-ALLIANCE BIOTECHNOLOGIES CO., LTD., priority 2005, published 2009)", "key": {"[1]": {"biological_target": "T1, glucocorticoid receptor of rat hepatic cytoplasm (Rattus norvegicus, UniProt P06536)", "T1 construct": "centrifuge at 175000 g for 1 hour, and take out the supernatant liquid as reserve; from tissue; host or cells: liver cytosol (175000 g supernatant) of adrenalectomised female SD rats", "T1 sequence (P06536 1-795)": "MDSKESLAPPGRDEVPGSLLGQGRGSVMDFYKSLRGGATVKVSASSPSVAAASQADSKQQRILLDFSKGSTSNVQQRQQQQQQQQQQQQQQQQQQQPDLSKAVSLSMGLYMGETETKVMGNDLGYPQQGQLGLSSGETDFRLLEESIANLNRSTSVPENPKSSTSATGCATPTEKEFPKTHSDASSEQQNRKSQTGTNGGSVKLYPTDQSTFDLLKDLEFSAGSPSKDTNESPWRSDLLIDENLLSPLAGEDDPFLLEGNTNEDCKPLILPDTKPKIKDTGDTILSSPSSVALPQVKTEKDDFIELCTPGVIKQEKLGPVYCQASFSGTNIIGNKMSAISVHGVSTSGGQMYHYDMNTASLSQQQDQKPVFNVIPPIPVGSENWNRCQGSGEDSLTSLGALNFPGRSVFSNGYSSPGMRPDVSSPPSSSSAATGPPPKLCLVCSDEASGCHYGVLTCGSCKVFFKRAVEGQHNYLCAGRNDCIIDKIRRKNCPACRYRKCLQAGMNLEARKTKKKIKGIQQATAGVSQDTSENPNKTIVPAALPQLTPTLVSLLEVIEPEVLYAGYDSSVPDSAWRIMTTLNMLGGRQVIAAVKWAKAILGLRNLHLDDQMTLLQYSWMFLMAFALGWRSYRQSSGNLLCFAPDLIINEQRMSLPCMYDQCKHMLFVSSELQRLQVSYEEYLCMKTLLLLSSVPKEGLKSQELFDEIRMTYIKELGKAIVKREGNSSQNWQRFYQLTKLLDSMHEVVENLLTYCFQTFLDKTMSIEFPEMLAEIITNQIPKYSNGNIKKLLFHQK", "assay": "Competition inhibition of [3H]-dexamethasone binding in rat hepatic cytoplasm", "protocol": "Clean female SD rats, body weight 200-250 g, are fed with certain quantity of food and freely drink water. The temperature is controlled at about 24° C. and an illumination cycle are for 11 hours by day and 13 hours at night. All animals are observed for 1 week before experiment. Incisions are made on two sides below arch of ribs on dorsal position of rats to extirpate adrenal glands. After operation, the rats are fed with physiological saline to maintain water-electrolyte balance. On the third day after operation, animals are acutely executed. The liver is taken out immediately and placed in ice cold buffer solution; the blood should be washed off as much as possible. Take certain quantity of tissue, add buffer solution (1:4), cut the tissue with scissors, intermittently homogenize the tissue under low temperature, centrifuge at 175000 g for 1 hour, and take out the supernatant liquid as reserve. […] Then carry out the competition inhibition experiment."}, "[2]": {"biological_target": "T2, progestogen receptor (PRa) (Homo sapiens, UniProt P06401)", "T2 sequence (P06401 1-769 isoform P06401-2)": "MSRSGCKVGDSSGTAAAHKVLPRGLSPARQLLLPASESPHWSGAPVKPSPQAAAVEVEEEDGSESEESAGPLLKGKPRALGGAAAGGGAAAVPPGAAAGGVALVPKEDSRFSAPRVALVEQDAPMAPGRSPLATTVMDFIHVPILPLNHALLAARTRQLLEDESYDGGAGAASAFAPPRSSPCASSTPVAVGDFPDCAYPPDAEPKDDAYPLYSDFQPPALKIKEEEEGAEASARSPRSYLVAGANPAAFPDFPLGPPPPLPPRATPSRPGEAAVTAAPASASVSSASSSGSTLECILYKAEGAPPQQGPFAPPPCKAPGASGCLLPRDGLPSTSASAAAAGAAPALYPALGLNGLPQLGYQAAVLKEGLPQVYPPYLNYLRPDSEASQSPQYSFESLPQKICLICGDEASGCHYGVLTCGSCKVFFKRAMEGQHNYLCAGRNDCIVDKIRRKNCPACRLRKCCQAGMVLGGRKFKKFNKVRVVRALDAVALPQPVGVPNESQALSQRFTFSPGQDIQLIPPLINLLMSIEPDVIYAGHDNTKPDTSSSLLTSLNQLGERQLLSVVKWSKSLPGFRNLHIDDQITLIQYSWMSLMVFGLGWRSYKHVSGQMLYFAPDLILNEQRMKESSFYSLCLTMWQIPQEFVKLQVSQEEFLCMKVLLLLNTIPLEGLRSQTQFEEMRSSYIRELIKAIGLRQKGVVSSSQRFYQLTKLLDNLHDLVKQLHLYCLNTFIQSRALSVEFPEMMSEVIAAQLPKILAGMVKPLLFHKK", "assay": "Binding activity on human nuclear receptor PR", "details": "mean ± SD, n = 4", "protocol": "Buffer solution is composed of 25 mM NaPO4, 20 mM NaMoO4, 10 mM KF and 10% glycerol (pH=7.3) and stored under 4° C. Stock solution is prepared with CHAPS and DTT and stored under −20° C. […] Add 2.5 μl/hole into 96-pore plate. Take out appropriate amount of buffer solution reserve into solution to make the final concentration of CHAPS and DDT to become 0.25 mM and 2 mM respectively. Add protease inhibitors (aprotinin and leupeptin) to make its final concentration to become 1 μg/μl, and place in an ice bath. After adding human nuclear receptor GR (1:8), PR (1:100), ER (1:2000), AR (1:200) and MR (1:40) into the reaction system respectively, adequately mix suitable quantity of [^3H]-dexamethasone, [^3H]-progesterone, [^3H]-estradiol and [^3H]-DHT (from Amersham), rapidly add into 96-pore plate (100 μl/pore) and incubate overnight under 4° C. On the next day, add 25 μl of hydroxyapatite suspension into each pore and mix with shaking. After incubating for 10 min, separate by centrifuge for 3 min at 2500 rpm. The precipitate is washed with 100 μl of buffer solution and separated by centrifuge twice. Add 150 μl of scintillation solution (from Perkin Elmer) into each pore, mix with shaking and count by MicroBeta counter."}}, "data": [{"smiles": "CC#C[C@]1(O)CC[C@H]2[C@@H]3CCC4=CC(=O)CCC4=C3[C@@H](c3ccc(N(C)C4CCCCC4)cc3)C[C@@]21C", "note": "[Cymipristone, 11β-[4-(N-methyl-N-cyclohexylamino)phenyl]-17α-(1-propynyl)-17β-hydroxyl-4,9-estradiene-3-one]", "values": [{"measurement": "IC50 ratio", "setting": "[1]; cymipristone : mifepristone", "result": 1.00}, {"measurement": "RBA ratio", "setting": "[1]; dexamethasone : cymipristone : mifepristone", "result": 5.6}, {"measurement": "Relative binding activity RBA", "setting": "[1]; dexamethasone as 100, mean ± SD, n = 4", "result": "557.69 ± 65.23", "unit": "%"}, {"measurement": "IC50", "setting": "[1]; mean ± SD, n = 4", "result": 2.6, "unit": "nM"}, {"measurement": "inhibition at 0.1 µM", "setting": "[1]; tested compound 1 × 10^−7 mol/L, mean ± SD, n = 4, read-out: Inhibition rate on binding of [3H]-dexamethasone", "result": "88.9 ± 9.01", "unit": "%"}, {"measurement": "inhibition at 0.02 µM", "setting": "[1]; tested compound 2 × 10^−8 mol/L, mean ± SD, n = 4, read-out: Inhibition rate on binding of [3H]-dexamethasone", "result": "75.6 ± 3.56", "unit": "%"}, {"measurement": "inhibition at 0.004 µM", "setting": "[1]; tested compound 4 × 10^−9 mol/L, mean ± SD, n = 4, read-out: Inhibition rate on binding of [3H]-dexamethasone", "result": "54.5 ± 4.24", "unit": "%"}, {"measurement": "inhibition at 0.5 µM", "setting": "[1]; tested compound 5 × 10^−7 mol/L, mean ± SD, n = 4, read-out: Inhibition rate on binding of [3H]-dexamethasone", "result": "95.4 ± 5.34", "unit": "%"}, {"measurement": "inhibition at 0.0008 µM", "setting": "[1]; tested compound 8 × 10^−10 mol/L, mean ± SD, n = 4, read-out: Inhibition rate on binding of [3H]-dexamethasone", "result": "31.2 ± 3.87", "unit": "%"}, {"measurement": "inhibition at 0.0016 µM", "setting": "[1]; tested compound 16 × 10^−10 mol/L, mean ± SD, n = 4, read-out: Inhibition rate on binding of [3H]-dexamethasone", "result": "17.2 ± 6.76", "unit": "%"}, {"measurement": "IC50", "setting": "[2]", "result": "5.2 ± 0.26", "unit": "nM"}]}]}
